{"source": "paper PMC10957570", "about": "“Coniferyl ferulate alleviate xylene-caused hematopoietic stem and progenitor cell toxicity by Mgst2” (Frontiers in Pharmacology, 2024)", "molecular_target": "T1, Mgst2 (Mus musculus, UniProt A2RST1)", "T1 construct": "native protein in lysate of CD117+ bone marrow cells, captured on CF chip and identified by LC-MS/MS", "T1 sequence (A2RST1 whole entry)": "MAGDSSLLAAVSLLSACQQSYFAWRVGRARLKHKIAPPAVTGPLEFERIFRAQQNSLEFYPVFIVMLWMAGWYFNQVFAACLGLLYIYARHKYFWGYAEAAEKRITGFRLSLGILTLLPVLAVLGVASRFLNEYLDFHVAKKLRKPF", "test": "SPR capture from cell lysate on CF chip, LC-MS/MS identification", "assay_type": "biochemical", "conditions": "CD117+ bone marrow cell lysate; CF immobilised; excess free CF lowered total SPR signal", "data": [{"compound": "COc1cc(/C=C/COC(=O)/C=C/c2ccc(O)c(OC)c2)ccc1O", "note": "[Coniferyl ferulate]", "values": [{"measurement": "SPR capture from cell lysate on CF chip, LC-MS/MS identification", "value": "we found that Mgst2 was one of the targets of CF"}]}]}
